# Source: US4550186A, “Binuclear copper (II) carboxylates formed from amine-carboxyboranes” (Duke University, priority 1983, dated 1985)
# Legend:
# [1] = tested on: deoxyribonucleic acid polymerase; assay: In vivo nuclear deoxyribonucleic acid polymerase activity; set-up: species or system mouse
# Procedure: (§1) CF1 male mice (~30 g) were implanted with 2×10^6 Ehrlich ascites tumor cells, intraperitoneally on Day 0. Compound I was suspended by homogenation in 0.05% polysorbate.80-water and administered intraperitoneally at 10 and 20 mg/kg for 9 days to determine its effectiveness for inhibition of tumor growth. Mice were sacrificed on Day 10, and the ascites fluid was collected from the peritoneal cavity. The volume and ascrit (packed cell volume) were determined for each animal and the percent inhibition of tumor growth was calculated. For the metabolic studies, mice were treated on Days 8 and 9 with 10 mg/kg of Compound I, intraperitoneally. The animal was sacrificed on Day 10 and the ascites fluid harvested. The in vitro metabolic studies were performed at […] final concentration of Compound I.
# In vitro and in vivo nuclear deoxyribonucleic acid polymerase activity was determined on isolated Ehrlich ascites cell nuclei. The incubation was that described by Sawada et al [Can. Res., 34, 3341 (1974)] except that [methyl-^3 H] deoxythymidine triphosphate (82.4 Ci/mmol) was used. The acid insoluble nucleic acid was collected on GF/F filters and counted. Nuclear ribonucleic acid polymerase activities were determined on enzymes isolated from nuclei. […] The acid insoluble ribonucleic acid was collected on nitrocellulose filters and counted.
# [2] = tested on: thymidylate monophosphate, diphosphate and triphosphate levels of Ehrlich ascites cells; assay: In vivo thymidine incorporation into nucleotide pools; set-up: species or system mouse
# Procedure: as §1
# Deoxythymidine as well as deoxythymidylate monophosphate and diphosphate kinase activities were measured spectrophotometrically at 340 nm at 30 min using reduced nicotinamide adenine dinucleotide (0.1 μmole). Thymidine incorporation (6-^3 H - 21.5 Ci/mmol) into nucleotides was measured using the medium of Maley and Ochoa [J. Biol. Chem., 223, 1538 (1958)]. The reaction medium was extracted with ether and the aqueous layer plated on PEI cellulose F plates and eluted with 0.5N formic acid: 0.6M LiCl (1:1). Areas which correlated with Rf values of thymidine, thymidylate monophosphate, diphosphate and triphosphate standards were scraped and counted.
# CF1 male mice = assay: Antihyperlipidemic screen in normal mice; format: in vivo, mouse; settings: for Serum Cholesterol / Serum Triglyceride: CF1 male mice I.P.
# Procedure: Compounds to be tested were suspended in 1% carboxymethylcellulose-water and administered to CF1 male mice (~25 g) intraperitoneally for 16 days or Holtzman male rats (~350 g) orally by an intubation needle for 16 days. On days 9 or 16, blood was obtained by tail vein bleeding and the serum separated by centrifugation for 3 min. The serum cholesterol levels were determined by a modification of the Liebermann-Burchard reaction as described in Ness et al, Clin. Chim. Acta, 10, 229 (1964). Serum was also collected on day 16 and the triglyceride content was determined by a commercial kit, The Fisher Hycel Triglyceride Test Kit.
# Data are expressed in the Table 2-7 as percent of control ± the standard deviation. The probable significant level (P) between each test group and the control group was determined by the Student's "t" test.
# [3] = 10 mg/kg/day I.P. on Days 8 and 9
substance,measurement,setting,value
{Cu[(CH3)3 N.BH2 CO2 ]2.(CH3)3 N.BH2 COOH} [Compound I],Nuclear deoxyribonucleic acid polymerase activity reduced,[1],62%
same,Deoxyribonucleic acid polymerase activity,[1]; [3],38 ± 5 % Control
same,3H-Thymidine incorporation into thymidylate monophosphate pool reduced,[2],57%
same,TDP pool reduced,[2],19%
same,TTP pool reduced,[2],10%
same,Thymidylate diphosphate levels,[2]; [3],89 ± 11 % Control
same,Thymidylate monophosphate levels,[2]; [3],43 ± 6 % Control
same,Thymidylate triphosphate levels,[2]; [3],90 ± 10 % Control
same,Serum Cholesterol,"CF1 male mice; 2.5 mg/kg, Day 9",61 ± 5 % Control
same,Serum Cholesterol,"CF1 male mice; 2.5 mg/kg, Day 16",62 ± 6 % Control
same,Serum Triglyceride,"CF1 male mice; 2.5 mg/kg, Day 16",50 ± 6 % Control
same,Serum Cholesterol,"CF1 male mice; 5.0 mg/kg, Day 9",67 ± 6 % Control
same,Serum Cholesterol,"CF1 male mice; 5.0 mg/kg, Day 16",63 ± 5 % Control
same,Serum Triglyceride,"CF1 male mice; 5.0 mg/kg, Day 16",69 ± 6 % Control
same,Serum Cholesterol,"CF1 male mice; 10.0 mg/kg, Day 9",71 ± 6 % Control
same,Serum Cholesterol,"CF1 male mice; 10.0 mg/kg, Day 16",63 ± 5 % Control
same,Serum Triglyceride,"CF1 male mice; 10.0 mg/kg, Day 16",47 ± 5 % Control
same,Serum Cholesterol,"CF1 male mice; 20.0 mg/kg, Day 9",52 ± 5 % Control
same,Serum Cholesterol,"CF1 male mice; 20.0 mg/kg, Day 16",53 ± 4 % Control
same,Serum triglyceride levels reduced,"CF1 male mice; mice, 2.5 mg/kg/day",greater than 50%
same,Serum triglyceride levels reduced,"CF1 male mice; mice, 10 mg/kg/day",greater than 50%
same,serum triglyceride reduction,"CF1 male mice; mice, 10 mg/kg/day",53%
same,reduction of serum cholesterol (maximal effect),"CF1 male mice; mice, 20 mg/kg/day",47%
